Source: patent publication US12673052B2, “Combinations for the treatment of cancer” (Exelixis, Inc., priority 2020, dated 2026)
Like-named read-outs stand apart in the source and are kept apart here.

What was measured:
CYP3A4 = test: Cytochrome P450 induction (mRNA levels) in fresh primary human hepatocytes; type: in vitro ADME
NCI-H441 = test: Tumor growth inhibition in xenograft model; type: in vivo, athymic nude mice
Description: (§1) Three human tumor cell lines, NCI-H441, MDA-MB-231, and SNU-5, were selected for use in tumor xenograft studies using athymic nude, NSG and CB.17 SCID mice, respectively. Pharmacodynamic modulation of MET phosphorylation was also measured in the NCI-H441 and SNU-5 xenografts. Tumor-bearing mice were orally dosed once-daily for 14 days (qd×14), and the tumors were resected and processed for MET phosphorylation analysis by Western blot. […]

P-gp = P-gp (Homo sapiens, UniProt P08183); test: Transporter interaction study (substrate and inhibition); type: in vitro ADME
P-gp, sequence (P08183 whole entry): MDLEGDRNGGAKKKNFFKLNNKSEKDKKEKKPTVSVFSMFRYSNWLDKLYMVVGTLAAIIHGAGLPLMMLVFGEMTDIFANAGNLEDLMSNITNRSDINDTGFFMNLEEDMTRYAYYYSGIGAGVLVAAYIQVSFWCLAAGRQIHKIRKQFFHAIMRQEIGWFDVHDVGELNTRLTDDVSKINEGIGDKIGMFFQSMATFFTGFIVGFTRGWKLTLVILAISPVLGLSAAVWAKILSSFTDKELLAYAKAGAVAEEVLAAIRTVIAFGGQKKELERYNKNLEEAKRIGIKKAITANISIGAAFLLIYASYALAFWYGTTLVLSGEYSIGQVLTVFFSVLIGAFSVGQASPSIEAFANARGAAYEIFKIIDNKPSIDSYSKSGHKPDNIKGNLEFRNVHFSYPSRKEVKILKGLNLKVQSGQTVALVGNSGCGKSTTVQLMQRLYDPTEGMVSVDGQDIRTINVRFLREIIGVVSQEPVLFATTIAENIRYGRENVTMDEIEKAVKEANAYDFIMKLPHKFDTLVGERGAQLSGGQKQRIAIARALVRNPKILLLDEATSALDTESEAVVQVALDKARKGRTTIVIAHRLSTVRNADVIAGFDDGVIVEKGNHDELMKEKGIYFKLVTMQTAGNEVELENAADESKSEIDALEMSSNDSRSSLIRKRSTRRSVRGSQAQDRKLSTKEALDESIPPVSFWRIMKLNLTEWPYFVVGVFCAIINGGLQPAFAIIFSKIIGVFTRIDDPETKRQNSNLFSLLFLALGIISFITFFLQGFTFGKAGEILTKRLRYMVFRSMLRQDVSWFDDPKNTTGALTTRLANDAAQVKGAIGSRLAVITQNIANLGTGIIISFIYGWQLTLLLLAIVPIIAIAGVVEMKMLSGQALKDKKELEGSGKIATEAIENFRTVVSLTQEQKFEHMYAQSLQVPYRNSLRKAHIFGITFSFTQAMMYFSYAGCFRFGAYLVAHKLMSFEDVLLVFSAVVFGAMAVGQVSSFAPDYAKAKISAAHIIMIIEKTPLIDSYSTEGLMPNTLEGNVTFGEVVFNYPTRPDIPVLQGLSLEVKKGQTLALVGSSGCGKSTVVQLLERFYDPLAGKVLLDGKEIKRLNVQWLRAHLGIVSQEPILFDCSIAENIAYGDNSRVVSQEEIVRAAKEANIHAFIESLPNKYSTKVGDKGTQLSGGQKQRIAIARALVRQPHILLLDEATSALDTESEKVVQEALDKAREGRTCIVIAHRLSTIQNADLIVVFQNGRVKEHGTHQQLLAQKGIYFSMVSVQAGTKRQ
Description: (§2) Plasma PK of Compound 1 was characterized in rats and beagle dogs. Toxicokinetic (TK) evaluations of oral Compound 1 were evaluated in repeat-dose studies in rats and dogs. Plasma protein binding was determined in mouse, rat, dog, monkey, and human plasma in vitro. Biotransformation and metabolite profiling of Compound 1 were investigated in vitro using mouse, rat, dog, monkey, and human liver microsomal fractions and hepatocytes and in vivo in rats and dogs. P-glycoprotein (P-gp) and breast cancer resistance protein (BCRP) transporter interaction studies, in vitro experiments evaluating cytochrome P450 (CYP) induction and inhibition by Compound 1, and CYP and glucuronosyltransferase (UGT) substrate specificity studies of Compound 1 were also performed.

BCRP = BCRP (Homo sapiens, UniProt Q9UNQ0); test: as above; type: in vitro ADME
BCRP, sequence (Q9UNQ0 whole entry): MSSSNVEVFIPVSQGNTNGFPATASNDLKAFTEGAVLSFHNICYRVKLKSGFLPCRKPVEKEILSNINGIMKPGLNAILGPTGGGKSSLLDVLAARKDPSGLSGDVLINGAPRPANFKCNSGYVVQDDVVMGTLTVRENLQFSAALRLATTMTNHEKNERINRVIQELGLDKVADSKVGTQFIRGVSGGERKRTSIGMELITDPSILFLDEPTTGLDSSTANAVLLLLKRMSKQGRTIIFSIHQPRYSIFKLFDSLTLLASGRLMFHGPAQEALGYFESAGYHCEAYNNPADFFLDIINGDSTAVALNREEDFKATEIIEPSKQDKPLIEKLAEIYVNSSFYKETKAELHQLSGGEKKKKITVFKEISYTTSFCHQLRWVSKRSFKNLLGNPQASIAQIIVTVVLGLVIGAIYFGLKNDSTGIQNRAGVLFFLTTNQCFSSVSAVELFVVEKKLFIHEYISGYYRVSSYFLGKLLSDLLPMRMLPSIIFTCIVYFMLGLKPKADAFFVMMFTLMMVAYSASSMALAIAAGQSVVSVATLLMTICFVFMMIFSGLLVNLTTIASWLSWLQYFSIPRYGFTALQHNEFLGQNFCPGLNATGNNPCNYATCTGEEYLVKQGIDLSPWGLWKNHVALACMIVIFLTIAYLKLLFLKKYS
Description: as §2

[1] = Phase 1 first-in-human Study Compound 1-001 (NCT03845166): plasma pharmacokinetics; type: in vivo; settings: for Cmax / AUC(0-t) / Tmax / half-life / Tmax at 28 days / half-life at 28 days: human, plasma, oral; for AUC(0-t): read-out: AUC0-24
Source text: The maximum tolerated dose (MTD) and/or recommended dose (RD) of Compound 1 single-agent therapy and ICI combination therapy will be determined in a Dose-Escalation Stage. The preliminary efficacy of Compound 1 as single agent and as ICI combination therapy will be determined in a Cohort-Expansion Stage with tumor-specific expansion cohorts. As of 14 Dec. 2020, dose escalation of Compound 1 as single agent and in combination therapy with atezolizumab was ongoing: 19 subjects were enrolled in single agent cohorts across six dose levels (PIB: 10, 20 mg; Tablet: 20, 40, 80, 140 mg); three subjects were enrolled in combination therapy with atezolizumab at one dose level (Compound 1 40 mg po qd plus atezolizumab 1200 mg IV q3w). As of 14 Dec. […] The majority of reported adverse events (AEs) were of low-grade severity (Grade 1-2) with five subjects having experienced treatment-related Grade 3 events.
As of 14 Dec. 2020, preliminary Compound 1 clinical PK data are available from 17 subjects in the single agent Dose-Escalation Stage of Study Compound 1-001 (n=3 for 10 mg liquid formulation [PIB]; n=4 for 20 mg liquid formulation [PIB]; n=3 for 20 mg tablet; n =4 for 40 mg tablet; n=3 for 80 mg tablet). In addition, PK of Compound 1 was evaluated when given in the combination with atezolizumab. PK data from a total of 3 subjects enrolled in the Combination Cohort 1 (40 mg Compound 1 qd+1200 mg atezolizumab q3w) are available. A summary of all available PK parameters estimated by non-compartmental approach using individual plasma concentration-time data from a single agent Compound 1 is presented in Table 1. Mean (standard deviation [SD]) plasma Compound 1 concentration-time profiles following a single agent PIB or tablet formulation are illustrated in FIG. 8.
• Blood samples to assess the PK of Compound 1 and its potential metabolites will be obtained during the DLT Evaluation Period: • On the date of first dose of study treatment (prior to study treatment administration) at hourly intervals up to 8 hours postdose on W1D1 and W4D7 (Day 28) • Predose on W1D2 • Predose and 2 hours postdose on W2D1, W3D1, and W4D1 • During the Washout Period on W5D1, W5D2, W5D3, and W5D5 (W5D2, W5D3, and W5D5 PK samples are not required for biomarker cohorts.) • Blood samples for PK analysis will be obtained after the DLT Evaluation and Washout Periods • Predose and 2 hours postdose on W6D1, W9D1, and W13D1.

MET = MET (Homo sapiens, UniProt P08581); test: In vivo target modulation: MET phosphorylation by Western blot in SNU-5 xenografts; design: endogenous in cells; host or cells: SNU-5 human tumour xenografts in CB.17 SCID mice; species or system CB.17 SCID mice; settings: for Compound 1 Plasma Exposure: qd × 14, 4 hours after last dose on Day 14
MET, sequence (P08581 25-1390): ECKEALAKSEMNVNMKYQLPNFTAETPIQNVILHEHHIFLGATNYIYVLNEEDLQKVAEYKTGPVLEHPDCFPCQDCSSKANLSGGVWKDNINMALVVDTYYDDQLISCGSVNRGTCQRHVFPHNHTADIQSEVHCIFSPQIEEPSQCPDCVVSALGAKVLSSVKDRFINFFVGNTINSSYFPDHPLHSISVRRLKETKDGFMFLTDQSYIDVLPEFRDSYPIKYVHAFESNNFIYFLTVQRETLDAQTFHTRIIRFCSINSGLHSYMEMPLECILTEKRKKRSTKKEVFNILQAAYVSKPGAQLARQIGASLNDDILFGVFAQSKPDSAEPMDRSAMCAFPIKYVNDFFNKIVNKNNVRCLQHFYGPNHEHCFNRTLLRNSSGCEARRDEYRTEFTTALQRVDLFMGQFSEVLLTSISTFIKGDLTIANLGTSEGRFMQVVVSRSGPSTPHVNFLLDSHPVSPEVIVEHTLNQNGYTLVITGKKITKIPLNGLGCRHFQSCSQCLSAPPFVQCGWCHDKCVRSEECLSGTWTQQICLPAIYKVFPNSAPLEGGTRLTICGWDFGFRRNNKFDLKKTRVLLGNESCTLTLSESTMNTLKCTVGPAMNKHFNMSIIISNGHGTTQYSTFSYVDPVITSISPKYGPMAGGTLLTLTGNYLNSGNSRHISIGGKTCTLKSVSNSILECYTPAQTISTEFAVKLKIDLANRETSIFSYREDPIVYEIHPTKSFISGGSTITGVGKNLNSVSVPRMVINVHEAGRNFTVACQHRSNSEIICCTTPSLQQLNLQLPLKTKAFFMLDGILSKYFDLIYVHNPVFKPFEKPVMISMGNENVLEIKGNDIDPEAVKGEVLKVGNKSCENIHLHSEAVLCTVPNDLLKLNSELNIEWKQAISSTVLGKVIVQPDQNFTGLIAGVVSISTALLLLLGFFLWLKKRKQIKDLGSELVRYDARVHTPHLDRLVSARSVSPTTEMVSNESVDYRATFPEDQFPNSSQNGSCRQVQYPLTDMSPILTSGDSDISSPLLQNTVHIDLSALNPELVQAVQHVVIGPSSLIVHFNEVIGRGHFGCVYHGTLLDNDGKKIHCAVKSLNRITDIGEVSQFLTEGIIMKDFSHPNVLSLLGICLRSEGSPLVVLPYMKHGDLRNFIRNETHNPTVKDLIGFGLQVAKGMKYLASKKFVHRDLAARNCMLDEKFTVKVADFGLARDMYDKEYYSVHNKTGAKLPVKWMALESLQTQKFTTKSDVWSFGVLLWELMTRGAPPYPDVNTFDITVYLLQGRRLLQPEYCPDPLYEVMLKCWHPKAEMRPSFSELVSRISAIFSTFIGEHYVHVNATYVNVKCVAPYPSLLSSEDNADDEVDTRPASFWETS
Description: as §1

[2] = 10 mg PIB, Steady-State (Day 28), mean ± SD
[3] = 20 mg PIB, Steady-State (Day 28), N = 3, mean ± SD
[4] = 20 mg Tablet, Steady-State (Day 28), mean ± SD
[5] = 40 mg Tablet, Steady-State (Day 28), mean ± SD
[6] = 80 mg Tablet, Steady-State (Day 28), mean ± SD
[7] = 10 mg, 10 mg PIB, First Dose (Day 1), mean ± SD
[8] = 10 mg, 10 mg PIB, Steady-State (Day 28), mean ± SD
[9] = 20 mg, 20 mg PIB, First Dose (Day 1), mean ± SD
[10] = 20 mg, 20 mg PIB, Steady-State (Day 28), N = 3, mean ± SD
[11] = 20 mg, 20 mg Tablet, First Dose (Day 1), mean ± SD
[12] = 20 mg, 20 mg Tablet, Steady-State (Day 28), mean ± SD
[13] = 40 mg, 40 mg Tablet, First Dose (Day 1), mean ± SD
[14] = 40 mg, 40 mg Tablet, Steady-State (Day 28), mean ± SD
[15] = 80 mg, 80 mg Tablet, First Dose (Day 1), mean ± SD
[16] = 80 mg, 80 mg Tablet, Steady-State (Day 28), mean ± SD
[17] = SNU-5, mouse, po, read-out: p-MET Inhibition %

CNC(=O)c1cc2c(Oc3ccc(NC(=O)C4(C(=O)Nc5ccc(F)cc5)CC4)cc3)ccnc2cc1OC [Compound 1, 1-N′-(4-Fluorophenvl)-1-N-[4-[7-methoxy-6-(methylcarbamovl)quinolin-4-yl]oxyphenyl]cyclopropane-1,1-dicarboxamide]
EC50 (CYP3A4; human, fresh primary human hepatocytes, mRNA induction, read-out: half-maximal effective concentration (EC50)): 2980 nM | maximal induction effect (Emax) (CYP3A4; mRNA, 0.1-100 μM): 24 fold | TGI (%) (NCI-H441; 3 mg/kg qd × 14 oral, p-value 0.0115): 63.3% | TGI (%) (NCI-H441; 10 mg/kg qd × 14 oral, p-value <0.0001): regression | substrate of transporter (P-gp): not to be a substrate | IC50 (P-gp; strong inhibitor): 59 nM | substrate of transporter (BCRP): not to be a substrate | IC50 (BCRP; strong inhibitor): 189 nM | AR AUC0-24 (accumulation ratio) [1, 2]: 1.92 ± 0.593 | AR Cmax (accumulation ratio) [1, 2]: 2.76 ± 0.609 | AR AUC0-24 (accumulation ratio) [1, 3]: 3.61 ± 4.09 | AR Cmax (accumulation ratio) [1, 3]: 4.09 ± 5.40 | AR AUC0-24 (accumulation ratio) [1, 4]: 1.33 ± 0.136 | AR Cmax (accumulation ratio) [1, 4]: 1.30 ± 0.374 | mean exposure of Compound 1 (Cmax and AUC0-24) in combination with atezolizumab relative to single agent ([1]; 40 mg Compound 1 qd + 1200 mg atezolizumab q3w, steady-state, lower in combination): approximately 2 fold | AR AUC0-24 (accumulation ratio) [1, 5]: 1.46 ± 0.286 | AR Cmax (accumulation ratio) [1, 5]: 1.27 ± 0.0979 | AR AUC0-24 (accumulation ratio) [1, 6]: 1.88 ± 0.947 | AR Cmax (accumulation ratio) [1, 6]: 1.67 ± 0.636 | accumulation at steady state ([1]; 20-mg tablet): < 2 fold | increase of mean exposure (AUC0-24) with dose ([1]; PIB 10 mg to 20 mg, Day 1): approximately dose proportionally | Mean PK exposure (Cmax and AUC0-24) of 20 mg tablet relative to 20 mg PIB ([1]; first dose Day 1, tablet higher): approximately 3.7 fold | increase of exposure with dose ([1]; first dose, 20 to 80 mg tablets, single agent): approximately dose proportional | Cmax [1, 7]: 35.7 ± 10.8 ng/mL | AUC(0-t) [1, 7]: 510 ± 193 ng·h/mL | Tmax ([1]; 10 mg, 10 mg PIB, First Dose (Day 1), median (min, max), read-out: Tmax): 1 h | Cmax [1, 8]: 95.2 ± 17.8 ng/mL | AUC(0-t) [1, 8]: 971 ± 398 ng·h/mL | half-life ([1]; 10 mg, 10 mg PIB, Steady-State (Day 28), mean ± SD, read-out: t1/2 (terminal phase half-life) (converted)): 19.9 ± 1.3 h | Tmax at 28 days ([1]; 10 mg, 10 mg PIB, Steady-State (Day 28), median (min, max)): 2 h | Cmax [1, 9]: 91.9 ± 13.4 ng/mL | AUC(0-t) [1, 9]: 1000 ± 338 ng·h/mL | Tmax ([1]; 20 mg, 20 mg PIB, First Dose (Day 1), median (min, max), read-out: Tmax): 2 h | Cmax [1, 10]: 330 ± 409 ng/mL | AUC(0-t) [1, 10]: 3270 ± 4010 ng·h/mL | half-life ([1]; 20 mg, 20 mg PIB, Steady-State (Day 28), N = 3, mean ± SD, read-out: t1/2 (terminal phase half-life) (converted)): 21 ± 5.7 h | Tmax at 28 days ([1]; 20 mg, 20 mg PIB, Steady-State (Day 28), N = 3, median (min, max)): 2 h | Cmax [1, 11]: 342 ± 225 ng/mL | AUC(0-t) [1, 11]: 3680 ± 1550 ng·h/mL | Tmax ([1]; 20 mg, 20 mg Tablet, First Dose (Day 1), median (min, max), read-out: Tmax): 6 h | Cmax [1, 12]: 422 ± 241 ng/mL | AUC(0-t) [1, 12]: 5030 ± 2560 ng·h/mL | half-life ([1]; 20 mg, 20 mg Tablet, Steady-State (Day 28), mean ± SD, read-out: t1/2 (terminal phase half-life) (converted)): 27.8 ± 4.74 h | Tmax ([1]; 20 mg, 20 mg Tablet, Steady-State (Day 28), median (min, max), read-out: Tmax): 1 h | half-life at 28 days ([1]; 20 mg, PIB 10 and 20 mg, steady-state Day 28, read-out: mean terminal half-life (t1/2) (converted)): ~20 h | Cmax [1, 13]: 521 ± 202 ng/mL | AUC(0-t) [1, 13]: 6350 ± 1540 ng·h/mL | Tmax ([1]; 40 mg, 40 mg Tablet, First Dose (Day 1), median (min, max), read-out: Tmax): 5 h | Cmax [1, 14]: 656 ± 242 ng/mL | AUC(0-t) [1, 14]: 8190 ± 1560 ng·h/mL | half-life ([1]; 40 mg, 40 mg Tablet, Steady-State (Day 28), mean ± SD, read-out: t1/2 (terminal phase half-life) (converted)): 24.2 ± 5.01 h | Tmax ([1]; 40 mg, 40 mg Tablet, Steady-State (Day 28), median (min, max), read-out: Tmax): 3 h | Cmax [1, 15]: 935 ± 348 ng/mL | AUC(0-t) [1, 15]: 11000 ± 6290 ng·h/mL | Tmax ([1]; 80 mg, 80 mg Tablet, First Dose (Day 1), median (min, max), read-out: Tmax): 2 h | Cmax [1, 16]: 1440 ± 454 ng/mL | AUC(0-t) [1, 16]: 16900 ± 3120 ng·h/mL | half-life ([1]; 80 mg, 80 mg Tablet, Steady-State (Day 28), mean ± SD, read-out: t1/2 (terminal phase half-life) (converted)): 19.3 ± 3.35 h | Tmax ([1]; 80 mg, 80 mg Tablet, Steady-State (Day 28), median (min, max), read-out: Tmax): 3 h | Tmax ([1]; first dose, tablets 20 to 80 mg, read-out: median Tmax): 2 to 6 h | half-life ([1]; tablet (as of April 2021), read-out: terminal half-life at steady state): 24 to 28 h | half-life at 28 days ([1]; tablets, steady-state, read-out: mean t1/2): 19 to 28 h | exposure (AUC0-24) of 20-mg tablet higher than 20 mg PIB ([1]; steady-state Day 28): approximately 50% | accumulation in exposure (Cmax and AUC0-24) at steady-state ([1]; tablets, after 28 days of daily dosing): < 2 fold | mean apparent CL/F ([1]; tablets, steady-state): approximately 5 L/hr | Compound 1 Plasma Exposure (MET; 3 mg/kg): 1.88 µM | Compound 1 Plasma Exposure (MET; 10 mg/kg): 7.64 µM | inhibition at 3 mg/kg (MET; [17]): 26% | inhibition at 10 mg/kg (MET; [17]): 67%
